Assay results from patent publication US7314624B2 (priority 2001, dated 2008).

How the values were obtained:
Type in all cases: cell-based
S. dysenteriae = settings: 15 minutes; bacteria alone 910,000 CFU; X8P 1/100 dilution; EDTA 50-25 μM
S. typhimurium = test system: S. typhimurium
[1] = test system: Influenza virus A/AA/6/60

Row | Compound | bacterial count after treatment (CFU) (S. dysenteriae) | bacterial count after treatment (CFU) (S. typhimurium) | inhibition of infectivity of influenza A virus [1] | reduction of influenza A infection of MDCK cells [1]
1 | O=C(O)CN(CCN(CC(=O)O)CC(=O)O)CC(=O)O [EDTA, ethylenediamine-tetraacetic acid] | 320,000 CFU | 790,000 CFU | – | –
2 | 4-(1,1,3,3-Tetramethylbutyl)phenvl-polyethylene glycol [TRITON X-100] | – | – | only partially inhibited | completely ineffective
